The values that follow come from ChEMBL document CHEMBL4368910, “Discovery of ( R)-8-(6-Methyl-4-oxo-1,4,5,6-tetrahydropyrrolo[3,4- b]pyrrol-2-yl)-3-(1-methylcyclopropyl)-2-((1-methylcyclopropyl)amino)quinazolin-4(3 H)-one, a Potent and Selective Pim-1/2 Kinase Inhibitor for Hematological Malignancies” (J Med Chem, 2019).

Data set [1] in a line: Solubility of the compound in phosphate buffer solution at pH 7.4 incubated for 1 hr in shaker and subsequently equilibrated for 72 hrs by LC/MS analysis. The class given is physicochemical.
Data set [2] is described as follows: Solubility of the compound in fasted state simulated intestinal fluid at pH 6.8 incubated for 1 hr in shaker and subsequently equilibrated for 72 hrs by LC/MS analysis. The class given is physicochemical.
The nature of data set [3]: Solubility of the compound in 0.01N HCl at pH 2 incubated for 1 hr in shaker and subsequently equilibrated for 72 hrs by LC/MS analysis. The class given is physicochemical.
The nature of data set [4]: Apparent permeability in pig LLC-PK1 cells at 5 uM. The class given is ADME, cell-based, Sus scrofa.
Data set [5] can be described thus: Volume of distribution at steady state in Sprague-Dawley rat. The class given is ADME. To be noted: in vivo, read-out: Vdss.
A short description of data set [6]: Oral bioavailability in Sprague-Dawley rat at 5 mg/kg. The class given is ADME, organism-based. The note with it: in vivo.
Data set [7] is described as follows: Volume of distribution at steady state in dog. The class given is ADME, Canis lupus familiaris. To be noted: in vivo, read-out: Vdss.
Data set [8] in a line: Oral bioavailability in dog. The class given is ADME, organism-based, Canis lupus familiaris. To be noted: in vivo.
Data set [9] can be described thus: Drug uptake in plasma of SCID-Beige mouse xenografted with human KMS-12-BM cells at 25 to 100 mg/kg, po administered once daily for 14 days and measured twice per week. The note with it: in vivo, 336 h. The class given is ADME, organism-based.

Each structure is given as a SMILES string. Values after ≈ are worked out from the molar mass of the structure shown. A value given as a limit tells only on which side of the number the result lay.

As for `C[C@H]1NC(=O)c2cc(-c3cccc4c(=O)n(C5CC5)c(NC(C)(C)C)nc34)[nH]c21`, the thermodynamic solubility at 72 h in data set [1] is 13 µM (≈ 5.09 µg/mL); in data set [2], 175 µM (≈ 68.5 µg/mL); in data set [3] it was 95 µM (≈ 37.2 µg/mL).

On to `CC(C)n1c(NC(C)(C)C)nc2c(-c3cc4c([nH]3)[C@@H](C)NC4=O)cccc2c1=O`, for which the solubility (thermodynamic) at 72 h in data set [1] is 11 µM (≈ 4.33 µg/mL); in data set [2] it was 68 µM (≈ 26.8 µg/mL); in data set [3] it was 26 µM (≈ 10.2 µg/mL).

On to `C[C@H]1NC(=O)c2cc(-c3cccc4c(=O)n(C)c(NC5(C)CC5)nc34)[nH]c21`, for which the thermodynamic solubility at 72 h in [1] is 56 µM (≈ 20.4 µg/mL); in data set [2], 344 µM (≈ 125 µg/mL); in data set [3], 500 µM (≈ 182 µg/mL). Besides, in data set [4], the apparent permeability coefficient (Papp) at 5 µM amounted to 31 ×10⁻⁶ cm/s.

For the compound `C[C@H]1NC(=O)c2cc(-c3cccc4c(=O)n(C5CC5)c(NC5(C)CC5)nc34)[nH]c21`, the values for the solubility (thermodynamic) at 72 h in [1], in [2] and in [3] were 78 µM (≈ 30.4 µg/mL), 144 µM (≈ 56.1 µg/mL) and 458 µM (≈ 178 µg/mL), respectively. In addition, the Papp at 5 µM in [4] was found to be 23 ×10⁻⁶ cm/s. Also, in data set [5], the Vd was 1.2 L/kg. This compound also registered a bioavailability in [6] of 68%.

For `C[C@H]1NC(=O)c2cc(-c3cccc4c(=O)n(C)c(NC(C)(C)C)nc34)[nH]c21`, the thermodynamic solubility at 72 h in [1] is 23 µM (≈ 8.41 µg/mL); in [2], 104 µM (≈ 38 µg/mL); in [3], 60 µM (≈ 21.9 µg/mL). Further, in [4], the Papp at 5 µM was determined as 46 ×10⁻⁶ cm/s.

On to `C[C@H]1NC(=O)c2cc(-c3cccc4c(=O)n(CC5CC5)c(NC5(C)CC5)nc34)[nH]c21`, for which the thermodynamic solubility at 72 h in [1] was 13 µM (≈ 5.25 µg/mL); in data set [2] it was 179 µM (≈ 72.2 µg/mL); in data set [3], 214 µM (≈ 86.3 µg/mL).

As to `C[C@H]1NC(=O)c2cc(-c3cccc4c(=O)n(C(C)(C)C)c(NC(C)(C)C)nc34)[nH]c21`, the thermodynamic solubility at 72 h in [1] is under 5 µM; in data set [2], 58 µM (≈ 23.6 µg/mL); in [3], under 5 µM.

Turning to `C[C@H]1NC(=O)c2cc(-c3cccc4c(=O)n(CC5CC5)c(NC(C)(C)C)nc34)[nH]c21`, the thermodynamic solubility at 72 h in data set [1] is under 5 µM; in data set [2], 12 µM (≈ 4.87 µg/mL); in data set [3], under 5 µM.

In the case of `C[C@H]1NC(=O)c2cc(-c3cccc4c(=O)n(C[C@H]5CN(C)CCO5)c(NC(C)(C)C)nc34)[nH]c21`, the thermodynamic solubility at 72 h in [1] is under 5 µM; in data set [2] it was under 5 µM; in [3], 256 µM (≈ 119 µg/mL).

For the compound `C[C@H]1NC(=O)c2cc(-c3cccc4c(=O)n(CC(C)(C)N)c(NC(C)(C)C)nc34)[nH]c21`, the results for the solubility (thermodynamic) at 72 h in data set [1], in data set [2] and in [3] were 26 µM (≈ 11 µg/mL), 131 µM (≈ 55.4 µg/mL) and 347 µM (≈ 147 µg/mL), respectively.

For `C[C@H]1NC(=O)c2cc(-c3cccc4c(=O)n(CC5(O)CC5)c(NC5(C)CC5)nc34)[nH]c21`, the thermodynamic solubility at 72 h in [1] was under 5 µM; in data set [2] it was 15 µM (≈ 6.29 µg/mL); in [3] it was 43 µM (≈ 18 µg/mL).

In the case of `C[C@H]1NC(=O)c2cc(-c3cccc4c(=O)n([C@@H](C)c5cn(C)cn5)c(NC5(C)CC5)nc34)[nH]c21`, the solubility (thermodynamic) at 72 h in data set [1] was 60 µM (≈ 27.5 µg/mL); in data set [2], 469 µM (≈ 215 µg/mL); in data set [3], 464 µM (≈ 212 µg/mL). Besides, in [4], the Papp at 5 µM was 35 ×10⁻⁶ cm/s. Also, the Vd in data set [5] stood at 1 L/kg. In addition, in data set [6], the bioavailability is 19%.

As to `C[C@H]1NC(=O)c2cc(-c3cccc4c(=O)n(C5(C)CC5)c(NC(C)(C)C)nc34)[nH]c21`, the results for the solubility (thermodynamic) at 72 h in [1], in data set [2] and in data set [3] were under 5 µM, 36 µM (≈ 14.6 µg/mL) and under 5 µM, respectively.

For `C[C@H]1NC(=O)c2cc(-c3cccc4c(=O)n(C[C@H]5CCCO5)c(NC(C)(C)C)nc34)[nH]c21`, the thermodynamic solubility at 72 h in data set [1] was 19 µM (≈ 8.28 µg/mL); in [2], 60 µM (≈ 26.1 µg/mL); in [3] it was under 5 µM.

For the compound `C[C@H](c1cn(C)cn1)n1c(NC2(C)CC2)nc2c(-c3cc4c([nH]3)[C@@H](C)NC4=O)cccc2c1=O`, the thermodynamic solubility at 72 h in data set [1] is 53 µM (≈ 24.2 µg/mL); in data set [2], 435 µM (≈ 199 µg/mL); in data set [3], 485 µM (≈ 222 µg/mL).

Take `CC(c1cn(C)cn1)n1c(NC(C)(C)C)nc2c(-c3cc4c([nH]3)[C@@H](C)NC4=O)cccc2c1=O` (stereo not given in full): the solubility (thermodynamic) at 72 h in [1] is 86 µM (≈ 39.5 µg/mL); in data set [2], 489 µM (≈ 225 µg/mL); in data set [3] it was 423 µM (≈ 194 µg/mL).

In the case of `C[C@H]1NC(=O)c2cc(-c3cccc4c(=O)n(CC5(N)CC5)c(NC(C)(C)C)nc34)[nH]c21`, the thermodynamic solubility at 72 h in [1] is under 5 µM; in [2], 42 µM (≈ 17.7 µg/mL); in data set [3], 500 µM (≈ 210 µg/mL).

Consider `C[C@H]1NC(=O)c2cc(-c3cccc4c(=O)n(C5CCC5)c(NC5(C)CC5)nc34)[nH]c21`, for which the solubility (thermodynamic) at 72 h in data set [1] is under 5 µM; in [2] it was 379 µM (≈ 153 µg/mL); in data set [3] it was 441 µM (≈ 178 µg/mL).

`C[C@H]1NC(=O)c2cc(-c3cccc4c(=O)n(CC5COC5)c(NC(C)(C)C)nc34)[nH]c21`: the figures for the solubility (thermodynamic) at 72 h in data set [1], in data set [2] and in data set [3] were 6 µM (≈ 2.53 µg/mL), 32 µM (≈ 13.5 µg/mL) and 14 µM (≈ 5.9 µg/mL), respectively.

Regarding `C[C@H]1NC(=O)c2cc(-c3cccc4c(=O)n(C[C@@H]5CN(C)CCO5)c(NC(C)(C)C)nc34)[nH]c21`, the results for the thermodynamic solubility at 72 h in data set [1], in data set [2] and in data set [3] were 122 µM (≈ 56.7 µg/mL), 283 µM (≈ 131 µg/mL) and 500 µM (≈ 232 µg/mL), respectively.

With `C[C@H]1NC(=O)c2cc(-c3cccc4c(=O)n(CC5(N)CC5)c(NC5(C)CC5)nc34)[nH]c21`, the values for the solubility (thermodynamic) at 72 h in data set [1], in data set [2] and in data set [3] were 134 µM (≈ 56.1 µg/mL), 280 µM (≈ 117 µg/mL) and 454 µM (≈ 190 µg/mL), respectively.

For `C[C@H]1NC(=O)c2cc(-c3cccc4c(=O)n(C[C@@H]5CCCO5)c(NC(C)(C)C)nc34)[nH]c21`, the figures for the thermodynamic solubility at 72 h in [1], in data set [2] and in data set [3] were 12 µM (≈ 5.23 µg/mL), 15 µM (≈ 6.53 µg/mL) and 28 µM (≈ 12.2 µg/mL), respectively.

`C[C@H]1NC(=O)c2cc(-c3cccc4c(=O)n(Cc5cn(C)cn5)c(NC(C)(C)C)nc34)[nH]c21`: the values for the thermodynamic solubility at 72 h in data set [1], in [2] and in [3] were 22 µM (≈ 9.8 µg/mL), 131 µM (≈ 58.4 µg/mL) and 94 µM (≈ 41.9 µg/mL), respectively.

As for `C[C@H]1NC(=O)c2cc(-c3cccc4c(=O)n(C5(C)CC5)c(NC5(C)CC5)nc34)[nH]c21`, the thermodynamic solubility at 72 h is 31 µM (≈ 12.5 µg/mL) in data set [1], 185 µM (≈ 74.6 µg/mL) in data set [2] and 490 µM (≈ 198 µg/mL) in data set [3]. The Papp at 5 µM in data set [4] amounted to 32 ×10⁻⁶ cm/s. The Vd in data set [5] was 1.7 L/kg; in data set [7], 2.1 L/kg. Besides, the bioavailability in data set [6] worked out at 85%; in data set [8], 56%. Further, the Drug uptake result in [9] is given as “Dose-dependent effect”.

Consider `C[C@H]1NC(=O)c2cc(-c3cccc4c(=O)n(C(C)(C)C)c(NC5(C)CC5)nc34)[nH]c21`, for which the solubility (thermodynamic) at 72 h in data set [1] is under 5 µM; in data set [2] it was 326 µM (≈ 132 µg/mL); in [3], 495 µM (≈ 201 µg/mL).

For `C[C@H]1NC(=O)c2cc(-c3cccc4c(=O)n(CC5(O)CC5)c(NC(C)(C)C)nc34)[nH]c21`, the solubility (thermodynamic) at 72 h in [1], in data set [2] and in data set [3] was under 5 µM throughout.

On to `CC(c1cn(C)cn1)n1c(NC2(C)CC2)nc2c(-c3cc4c([nH]3)[C@@H](C)NC4=O)cccc2c1=O` (mixture of isomers), for which the figures for the solubility (thermodynamic) at 72 h in data set [1], in [2] and in [3] were 52 µM, 500 µM and 500 µM, respectively.
